Key:
Amoeba proteus = test: in vitro protozoicidal test on Amoeba proteus (watch glass, microscope); type: cell-based; conditions: in aqueous polysorbate 80 (0.05%); for LD100: concentration giving death of 100% of individuals within 3 minutes
Trichomonas hominis = test: in vitro protozoicidal test on Trichomonas hominis (watch glass, microscope); type: cell-based; conditions: in aqueous polysorbate 80 (0.05%); for LD100: concentration giving death of 100% of individuals within 3 minutes
Gregarina blattarum = test: in vitro protozoicidal test on gregarines isolated from cockroaches; type: cell-based; conditions: Ringer's solution; for LD100: lethal concentration for 100% of individuals within 3 minutes
Source text: For in vitro tests of antiprotozoal activity of the composition five reference organisms representing taxonomic groups to which pathogenic protozoa belong were selected, i.e: • Amoeba proteus—Chaos diffluens—a protozoan of the order Euamoebida, belonging to fifth supergroup of the Amoebozoa, living in waters. • Paramecium caudatum—a slipper animalcule representing the Ciliata orachs, living in waters. • Gregarina blattarum—gregarine isolated from cockroaches, representing the phylum Apicomplexa, living in the digestive tracts or body cavities of invertebrates. • Euglena gracilis—a protozoan living in water, representing the flagellates—Mastigophora, family Euglenaceae. • Trichomonas hominis—a protozoan living in the human colon, representing the Trichomonadidae.
The gregarines were isolated from the cockroaches and, after being placed on a watch slide, were treated with the products at different concentrations in Ringer's solution. Each sample contained ten individuals.
The compositions, negative controls, and positive controls were dissolved in an aqueous solution of polysorbate 80 (0.05%) before application to a watch slide.
Compositions I and II were then analysed for their antiprotozoal properties. […]
Individual acids, catalyst solution, essential oil and metal salt solutions were also analysed for protozoal properties. […] Observation under a fluorescence microscope with phase contrast was carried out.

Trypanosoma cruzi = conditions: read-out: inhibitory effect on 50% of the population (IC50), Becco et al. 2012; cited from earlier work
[1] = test system: Trypanosoma cruzi and Leishmania chagasi; conditions: Escobar et al. 2010; cited from earlier work
Paramecium caudatum = test: in vitro protozoicidal test on Paramecium caudatum (watch glass, microscope); type: cell-based; conditions: concentration giving death of 100% of individuals within 3 minutes, in aqueous polysorbate 80 (0.05%)
Euglena gracilis = test: in vitro protozoicidal test on Euglena gracilis (watch glass, microscope); type: cell-based; conditions: concentration giving death of 100% of individuals within 3 minutes, in aqueous polysorbate 80 (0.05%)
[2] = concentration giving death of 50% of individuals within 3 minutes

| Compound | LD50 (Amoeba proteus; [2]) [%] | LD100 (Amoeba proteus) [%] | LD50 (Trichomonas hominis; [2]) [%] | LD100 (Trichomonas hominis) [%] | LD50 (Gregarina blattarum; lethal concentration for 50% of individuals within 3 minutes) [%] | LD100 (Gregarina blattarum) [%] | IC50 (Trypanosoma cruzi) [µM] | IC50 [1] [µg/mL] | LD100 (Paramecium caudatum) [%] | LD100 (Euglena gracilis) [%] |
| --- | --- | --- | --- | --- | --- | --- | --- | --- | --- | --- |
| Cc1ncc([N+](=O)[O-])n1CCO [M, metronidazole, reference compound] | 0.3 | 0.5 | 0.05 | 0.1 | 0.13 | 0.3 |  |  |  |  |
| CC1CS(=O)(=O)CCN1/N=C/c1ccc([N+](=O)[O-])o1 (stereo not shown) [Nifurtimox] |  |  |  |  |  |  | 6 | 0.3 to 0.4 |  |  |
| copper carbonate [Copper carbonate solution] |  |  |  | 0.3 |  |  |  |  | 0.5 | 0.25 |
| zinc carbonate [Zinc carbonate solution] |  | 0.25 |  | 0.4 |  | 0.4 |  |  | 0.5 | 0.3 |

Source: patent US20230270809A1, “VETERINARY COMPOSITIONS FOR THE TREATMENT AND/OR PREVENTION OF PROTOZOAN DISEASES AND METHODS OF PREPARATION THEREOF” (ADIFEED SP. Z O. O., priority 2020, published 2023)
